Assays:
[1] = target: T1, High affinity cGMP-specific 3',5'-cyclic phosphodiesterase 9A (Homo sapiens, UniProt O76083); assay: Inhibition of N-terminal GST-tagged full-length human PDE9A2 expressed in baculovirus infected Sf9 insect cells using cGMP as substrate incubated for 30 mins by HTRF assay
[2] = target: T2, Protein deacetylase HDAC6 (Homo sapiens, UniProt Q9UBN7); assay: Inhibition of full-length recombinant human HDAC6 (1 to 1215 residues) expressed in Sf9 insect cells using fluorogenic substrate incubated for 30 mins by fluorescence based plate reader analysis
T2 sequence (Q9UBN7 whole entry): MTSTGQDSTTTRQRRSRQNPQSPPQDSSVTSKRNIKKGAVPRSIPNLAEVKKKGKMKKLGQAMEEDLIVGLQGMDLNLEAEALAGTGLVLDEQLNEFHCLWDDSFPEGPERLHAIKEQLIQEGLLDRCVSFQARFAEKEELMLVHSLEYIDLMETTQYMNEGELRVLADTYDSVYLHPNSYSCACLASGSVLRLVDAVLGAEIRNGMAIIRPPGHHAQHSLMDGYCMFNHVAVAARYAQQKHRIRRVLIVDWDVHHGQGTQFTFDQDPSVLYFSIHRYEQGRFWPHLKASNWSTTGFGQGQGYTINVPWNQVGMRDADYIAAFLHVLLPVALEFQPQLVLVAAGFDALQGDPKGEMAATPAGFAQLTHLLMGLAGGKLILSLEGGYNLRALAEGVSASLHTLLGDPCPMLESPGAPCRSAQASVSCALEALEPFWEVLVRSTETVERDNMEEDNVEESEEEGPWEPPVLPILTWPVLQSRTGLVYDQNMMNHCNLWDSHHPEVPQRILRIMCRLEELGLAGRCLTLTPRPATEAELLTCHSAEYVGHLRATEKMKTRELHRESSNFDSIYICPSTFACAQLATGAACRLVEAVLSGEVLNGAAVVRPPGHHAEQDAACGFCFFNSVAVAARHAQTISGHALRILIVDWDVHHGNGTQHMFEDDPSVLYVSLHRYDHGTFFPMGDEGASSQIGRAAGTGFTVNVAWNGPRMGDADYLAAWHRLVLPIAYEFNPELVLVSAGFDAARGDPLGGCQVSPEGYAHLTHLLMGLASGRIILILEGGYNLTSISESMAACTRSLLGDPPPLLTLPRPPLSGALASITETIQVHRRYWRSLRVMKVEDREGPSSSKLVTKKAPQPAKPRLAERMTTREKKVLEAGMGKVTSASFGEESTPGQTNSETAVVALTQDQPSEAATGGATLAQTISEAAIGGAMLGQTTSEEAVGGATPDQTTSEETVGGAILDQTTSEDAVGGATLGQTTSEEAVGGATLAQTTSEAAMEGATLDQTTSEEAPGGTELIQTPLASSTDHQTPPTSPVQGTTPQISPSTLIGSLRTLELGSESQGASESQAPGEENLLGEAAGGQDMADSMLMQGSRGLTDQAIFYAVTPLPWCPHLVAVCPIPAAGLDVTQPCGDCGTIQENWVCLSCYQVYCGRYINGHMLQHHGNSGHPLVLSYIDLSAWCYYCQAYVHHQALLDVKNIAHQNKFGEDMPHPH

Histone deacetylase 1 [3] = target: T3, Histone deacetylase 1 (Homo sapiens, UniProt Q13547); assay: Inhibition of C-terminal 6xHis/FLAG-tagged full-length recombinant human HDAC1 (1 to 482 residues) expressed in Sf9 insect cells using fluorogenic substrate incubated for 30 mins by fluorescence based plate reader analysis
[4] = target: T4, cGMP-specific 3',5'-cyclic phosphodiesterase (Homo sapiens, UniProt O76074); assay: Inhibition of N-terminal GST-tagged full-length recombinant human PDE5A1 (1 to 875 residues) expressed in Sf9 insect cells using cGMP as substrate incubated for 30 mins by HTRF assay
[5] = Inhibition of PDE5 (unknown origin); design: species or system Homo sapiens
Histone deacetylase 2 [6] = target: T5, Histone deacetylase 2 (Homo sapiens, UniProt Q92769); assay: Inhibition of HDAC2 (unknown origin)
Histone deacetylase 1 [7] = target: T3, Histone deacetylase 1; assay: Inhibition of HDAC1 (unknown origin)
[8] = target: T1, High affinity cGMP-specific 3',5'-cyclic phosphodiesterase 9A; assay: Inhibition of PDE9 (unknown origin)
[9] = target: T2, Protein deacetylase HDAC6; assay: Inhibition of HDAC6 (unknown origin)
[10] = target: Protein kinase C alpha type (Mus musculus, UniProt P20444); assay: Binding affinity to mouse PKC-alpha assessed as inhibition constant
[11] = target: Phosphatidylinositol 4,5-bisphosphate 3-kinase catalytic subunit alpha isoform (Homo sapiens, UniProt P42336); assay: Inhibition of PI3K-alpha (unknown origin)
[12] = target: 72 kDa type IV collagenase (Homo sapiens, UniProt P08253); assay: Inhibition of MMP2 (unknown origin) using chromogenic substrate incubated for 1 hr followed by substrate addition measured for 30 mins by microplate photometry
Histone deacetylase 8 = target: T6, Histone deacetylase 8 (Homo sapiens, UniProt Q9BY41); assay: Inhibition of recombinant human HDAC8 using Fluor-de-lys substrate by fluorescence based microplate reader analysis
T6 sequence (Q9BY41 whole entry): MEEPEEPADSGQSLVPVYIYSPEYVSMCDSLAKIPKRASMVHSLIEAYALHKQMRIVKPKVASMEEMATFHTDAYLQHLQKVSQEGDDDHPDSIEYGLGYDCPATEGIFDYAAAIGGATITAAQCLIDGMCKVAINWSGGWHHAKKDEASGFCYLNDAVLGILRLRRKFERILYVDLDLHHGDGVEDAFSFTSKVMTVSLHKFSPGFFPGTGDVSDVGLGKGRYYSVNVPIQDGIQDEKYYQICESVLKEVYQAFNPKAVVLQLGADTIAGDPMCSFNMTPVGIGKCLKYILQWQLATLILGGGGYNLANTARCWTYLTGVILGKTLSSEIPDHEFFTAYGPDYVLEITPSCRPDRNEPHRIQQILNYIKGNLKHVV

A549 [13] = assay: Antiinvasive activity against human A549 cells assessed as reduction in cell invasion incubated for 24 hrs by microplate reader analysis relative to control; format: functional; design: scale not given: the % may be the effect or the level left
[14] = target: T4, cGMP-specific 3',5'-cyclic phosphodiesterase; assay: Inhibition of PDE5A (unknown origin)
Histone deacetylase 1 [15] = target: T3, Histone deacetylase 1; assay: Inhibition of recombinant human HDAC1 expressed in baculovirus infected Hi-5 insect cells using Ac-Lys-Tyr-Lys (epsilon-acetyl)-AMC as substrate incubated for 3 to 24 hrs by fluorescence based plate reader analysis
HCT-116 = assay: Cytotoxicity against human HCT-116 cells assessed as inhibition of cell proliferation incubated for 72 hrs by MTT assay; format: functional, cell-based; conditions: HCT-116, 72 h
Histone deacetylase 3 = Histone deacetylase 3 (Homo sapiens, UniProt O15379); assay: Inhibition of recombinant human HDAC3 expressed in baculovirus infected Hi-5 insect cells using Ac-Lys-Tyr-Lys (epsilon-acetyl)-AMC as substrate incubated for 3 to 24 hrs by fluorescence based plate reader analysis
A549 [16] = assay: Cytotoxicity against human A549 cells assessed as inhibition of cell proliferation incubated for 72 hrs by MTT assay; format: functional, cell-based; conditions: A549, 72 h
Histone deacetylase 2 [17] = target: T5, Histone deacetylase 2; assay: Inhibition of recombinant human HDAC2 expressed in baculovirus infected Hi-5 insect cells using Ac-Lys-Tyr-Lys (epsilon-acetyl)-AMC as substrate incubated for 3 to 24 hrs by fluorescence based plate reader analysis
HepG2 = assay: Antiproliferative activity against human HepG2 cells assessed as cell growth inhibition incubated for 48 hrs by MTT assay; format: functional, cell-based; conditions: HepG2, 48 h
K562 = assay: Antiproliferative activity against human K562 cells assessed as cell growth inhibition incubated for 48 hrs by MTT assay; format: functional, cell-based; conditions: K562, 48 h
DU-145 = assay: Antiproliferative activity against human DU-145 cells assessed as cell growth inhibition incubated for 48 hrs by MTT assay; format: functional, cell-based; conditions: DU-145, 48 h
Histone deacetylase 1 [18] = target: T3, Histone deacetylase 1; assay: Inhibition of full-length recombinant human HDAC1 expressed in baculovirus infected Hi-5 insect cells using AcLys-Tyr-Lys(e-acetyl)-AMC as substrate incubated for 24 hrs by enzymatic assay

T3 sequence (Q13547 whole entry, the tested form may be a part): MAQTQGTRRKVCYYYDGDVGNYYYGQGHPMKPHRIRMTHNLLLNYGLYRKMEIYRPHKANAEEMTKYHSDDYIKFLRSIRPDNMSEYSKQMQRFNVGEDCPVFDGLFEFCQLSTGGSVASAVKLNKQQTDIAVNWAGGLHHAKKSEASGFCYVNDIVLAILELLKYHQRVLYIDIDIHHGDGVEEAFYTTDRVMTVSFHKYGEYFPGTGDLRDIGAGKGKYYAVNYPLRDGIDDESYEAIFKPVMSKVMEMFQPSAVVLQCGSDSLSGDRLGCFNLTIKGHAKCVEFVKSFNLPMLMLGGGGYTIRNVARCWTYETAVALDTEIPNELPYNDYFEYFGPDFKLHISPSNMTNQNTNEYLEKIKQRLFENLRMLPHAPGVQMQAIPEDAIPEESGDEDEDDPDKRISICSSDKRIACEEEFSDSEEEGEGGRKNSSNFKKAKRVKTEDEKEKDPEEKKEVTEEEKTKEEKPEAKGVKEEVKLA
T5 sequence (Q92769 whole entry): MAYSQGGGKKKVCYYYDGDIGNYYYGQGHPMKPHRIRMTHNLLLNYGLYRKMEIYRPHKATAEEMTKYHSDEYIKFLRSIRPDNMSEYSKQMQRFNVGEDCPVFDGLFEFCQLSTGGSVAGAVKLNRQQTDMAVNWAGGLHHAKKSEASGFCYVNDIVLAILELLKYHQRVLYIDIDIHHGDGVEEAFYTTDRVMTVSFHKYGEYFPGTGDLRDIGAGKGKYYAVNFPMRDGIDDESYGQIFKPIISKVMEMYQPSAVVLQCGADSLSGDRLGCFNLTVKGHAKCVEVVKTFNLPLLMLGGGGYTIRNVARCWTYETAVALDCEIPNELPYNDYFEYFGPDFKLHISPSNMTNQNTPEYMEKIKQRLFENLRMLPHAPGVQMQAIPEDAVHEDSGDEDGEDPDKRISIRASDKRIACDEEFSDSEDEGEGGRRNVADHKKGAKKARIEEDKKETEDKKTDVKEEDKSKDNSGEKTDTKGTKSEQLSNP
72 kDa type IV collagenase, sequence (P08253 whole entry): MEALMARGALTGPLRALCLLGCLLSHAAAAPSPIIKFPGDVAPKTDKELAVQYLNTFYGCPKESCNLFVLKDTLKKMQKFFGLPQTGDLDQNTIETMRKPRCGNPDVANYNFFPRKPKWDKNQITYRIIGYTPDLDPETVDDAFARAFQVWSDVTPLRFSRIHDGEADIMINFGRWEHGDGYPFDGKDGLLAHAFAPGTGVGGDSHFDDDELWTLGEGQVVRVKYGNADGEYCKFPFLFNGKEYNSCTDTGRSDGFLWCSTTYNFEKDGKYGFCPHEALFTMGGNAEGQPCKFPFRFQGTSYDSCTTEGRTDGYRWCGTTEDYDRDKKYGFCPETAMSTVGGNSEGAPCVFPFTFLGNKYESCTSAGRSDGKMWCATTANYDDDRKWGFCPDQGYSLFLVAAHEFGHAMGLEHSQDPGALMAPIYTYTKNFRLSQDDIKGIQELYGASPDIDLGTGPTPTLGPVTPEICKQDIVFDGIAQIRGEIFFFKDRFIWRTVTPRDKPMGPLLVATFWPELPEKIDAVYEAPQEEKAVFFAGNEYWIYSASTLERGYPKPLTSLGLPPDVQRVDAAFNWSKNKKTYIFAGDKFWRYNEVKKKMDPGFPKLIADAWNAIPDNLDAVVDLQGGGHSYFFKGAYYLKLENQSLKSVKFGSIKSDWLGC
Phosphatidylinositol 4,5-bisphosphate 3-kinase catalytic subunit alpha isoform, sequence (P42336 whole entry, canonical isoform): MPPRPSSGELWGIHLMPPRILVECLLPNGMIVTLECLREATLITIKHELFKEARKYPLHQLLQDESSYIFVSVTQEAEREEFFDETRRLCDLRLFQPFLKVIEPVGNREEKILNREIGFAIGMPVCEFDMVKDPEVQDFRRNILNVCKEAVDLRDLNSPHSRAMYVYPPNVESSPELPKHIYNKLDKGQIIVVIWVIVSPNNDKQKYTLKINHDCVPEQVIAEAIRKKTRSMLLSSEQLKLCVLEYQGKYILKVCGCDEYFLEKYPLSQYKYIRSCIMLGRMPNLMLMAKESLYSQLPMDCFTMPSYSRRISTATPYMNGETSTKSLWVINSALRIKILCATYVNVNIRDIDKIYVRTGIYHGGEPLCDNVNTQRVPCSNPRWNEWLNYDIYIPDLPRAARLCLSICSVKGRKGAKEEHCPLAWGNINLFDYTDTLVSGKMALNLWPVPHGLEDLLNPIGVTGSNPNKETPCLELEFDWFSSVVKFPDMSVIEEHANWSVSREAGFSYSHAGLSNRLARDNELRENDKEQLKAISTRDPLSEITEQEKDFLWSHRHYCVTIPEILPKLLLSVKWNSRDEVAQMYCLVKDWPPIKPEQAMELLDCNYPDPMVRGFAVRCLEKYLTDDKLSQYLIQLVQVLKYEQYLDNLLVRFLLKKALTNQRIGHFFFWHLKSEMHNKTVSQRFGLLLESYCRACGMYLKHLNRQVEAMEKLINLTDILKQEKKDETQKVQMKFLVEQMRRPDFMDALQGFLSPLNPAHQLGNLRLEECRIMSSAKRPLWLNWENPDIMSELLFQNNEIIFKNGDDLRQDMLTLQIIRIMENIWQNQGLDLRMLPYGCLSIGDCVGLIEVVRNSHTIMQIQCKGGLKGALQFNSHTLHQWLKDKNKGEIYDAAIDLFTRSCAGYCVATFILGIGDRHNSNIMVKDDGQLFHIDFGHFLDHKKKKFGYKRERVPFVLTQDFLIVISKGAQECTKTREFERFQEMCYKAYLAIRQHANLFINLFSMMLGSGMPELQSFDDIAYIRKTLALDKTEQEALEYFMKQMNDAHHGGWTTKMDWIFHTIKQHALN
Histone deacetylase 3, sequence (O15379 whole entry): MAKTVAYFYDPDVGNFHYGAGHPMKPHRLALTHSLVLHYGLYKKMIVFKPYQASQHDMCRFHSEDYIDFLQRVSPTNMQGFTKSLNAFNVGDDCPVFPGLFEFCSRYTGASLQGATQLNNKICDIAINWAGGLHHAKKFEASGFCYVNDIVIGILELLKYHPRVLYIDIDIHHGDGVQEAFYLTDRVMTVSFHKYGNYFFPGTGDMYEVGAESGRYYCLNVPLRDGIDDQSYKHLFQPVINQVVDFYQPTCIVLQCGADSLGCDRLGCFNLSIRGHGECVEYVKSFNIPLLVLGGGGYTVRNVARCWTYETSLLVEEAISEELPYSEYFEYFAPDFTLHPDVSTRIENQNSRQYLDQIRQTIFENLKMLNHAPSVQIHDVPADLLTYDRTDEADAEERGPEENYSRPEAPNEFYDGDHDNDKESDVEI
T1 sequence (O76083 whole entry, the tested form may be a part): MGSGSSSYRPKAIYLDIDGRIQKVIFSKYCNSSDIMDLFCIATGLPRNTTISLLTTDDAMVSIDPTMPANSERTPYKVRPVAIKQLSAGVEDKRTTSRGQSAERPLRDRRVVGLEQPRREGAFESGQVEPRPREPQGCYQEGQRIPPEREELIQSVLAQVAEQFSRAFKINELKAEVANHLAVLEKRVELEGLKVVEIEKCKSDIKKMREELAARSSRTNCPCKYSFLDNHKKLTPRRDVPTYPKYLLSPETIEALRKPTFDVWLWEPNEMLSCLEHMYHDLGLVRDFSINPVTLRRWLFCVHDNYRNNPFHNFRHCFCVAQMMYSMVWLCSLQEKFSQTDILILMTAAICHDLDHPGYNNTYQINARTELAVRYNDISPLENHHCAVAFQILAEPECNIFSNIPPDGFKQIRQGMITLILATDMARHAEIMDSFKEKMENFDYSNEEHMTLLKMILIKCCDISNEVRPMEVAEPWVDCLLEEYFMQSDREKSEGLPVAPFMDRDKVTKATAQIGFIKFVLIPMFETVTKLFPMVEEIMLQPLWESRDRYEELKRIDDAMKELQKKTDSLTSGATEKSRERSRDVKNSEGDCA

CCCc1nn(C)c2c(=O)[nH]c(-c3cc(CC4CC(C(=O)NO)C4)ccc3OCC)nc12 (stereo not drawn)
IC50 [1]: > 10000 nM | IC50 [2]: 81 nM | IC50 (Histone deacetylase 1 [3]): 310 nM | IC50 [4]: 60 nM

C[C@H]1CN(Cc2ccc(/C=C/C(=O)NO)cc2)C[C@@H]1c1nc2c(cnn2C2CCOCC2)c(=O)[nH]1
IC50 [5]: > 10000 nM | IC50 (Histone deacetylase 2 [6]): 1250 nM | IC50 (Histone deacetylase 1 [7]): 138 nM | IC50 [8]: 8 nM | IC50 [9]: 508 nM

CC(=O)SCCCCCCCOc1ccc2c(c1)N(C)[C@H](C(C)C)C(=O)N[C@@H](CO)C2
Ki [10]: 4.5 nM

O=C(NO)c1ccc(/C=N/NC(=O)c2cc(N3CCOCC3)nc(-c3cccc4[nH]ncc34)n2)cc1
IC50 [9]: 34.6 nM | IC50 [11]: 8.34 nM

O=C(O)CC[C@H](NC(=O)Cc1ccc(Br)cc1)C(=O)NCc1ccccc1
IC50 [12]: 19600 nM | IC50 (Histone deacetylase 8): 3030 nM | Activity (A549 [13]): 34%

CCCc1nn(C)c2c(=O)[nH]c(-c3cc(Cc4ccc(C(=O)Nc5ccccc5N)cc4)ccc3OCC)nc12
IC50 (Histone deacetylase 2 [6]): > 20000 nM | IC50 (Histone deacetylase 1 [7]): 673 nM | IC50 [14]: 114 nM | IC50 [9]: > 20000 nM

COc1ccc(CNC(=O)[C@H](CCC(=O)O)NC(=O)Cc2ccc(Br)cc2)cc1
IC50 [12]: 6400 nM | IC50 (Histone deacetylase 8): 2890 nM | Activity (A549 [13]): 34%

COc1cc([C@@H]2c3cc4c(cc3C[C@H]3COC(=O)[C@@H]32)OCO4)cc(OC)c1OC(=O)CC(=O)Nc1ccc(C(=O)Nc2ccccc2N)cc1
IC50 (Histone deacetylase 1 [15]): 11000 nM | IC50 (HCT-116): 40 nM | IC50 (Histone deacetylase 3): 5300 nM | IC50 (A549 [16]): 37 nM | IC50 (Histone deacetylase 2 [17]): 750 nM

O=C(NO)c1ccc(/C=N/NC(=O)c2cc(N3CCOCC3)nc(-c3cccc(O)c3)n2)cc1
IC50 [9]: 15.3 nM | IC50 [11]: 46.3 nM

CCN1CCN(c2cc(Nc3ncc(C(=O)Nc4ccccc4N)s3)ncn2)CC1
IC50 (HepG2): 16500 nM | IC50 (K562): 2560 nM | IC50 (DU-145): 5790 nM | IC50 (Histone deacetylase 1 [18]): 150 nM

COc1cc([C@@H]2c3cc4c(cc3C[C@H]3COC(=O)[C@@H]32)OCO4)cc(OC)c1OC(=O)CC(=O)NCc1ccc(C(=O)Nc2ccccc2N)cc1
IC50 (Histone deacetylase 1 [15]): 11100 nM | IC50 (HCT-116): 37 nM | IC50 (Histone deacetylase 3): 1000 nM | IC50 (A549 [16]): 36 nM | IC50 (Histone deacetylase 2 [17]): 1730 nM

— ChEMBL document CHEMBL5113372, “Paradigm shift of "classical" HDAC inhibitors to "hybrid" HDAC inhibitors in therapeutic interventions” (Eur J Med Chem, 2021)
